# Measurements published in publication PMC11551755, “Structure-based discovery of first inhibitors targeting the helicase activity of human PIF1” (Nucleic Acids Research, 2024).
# Values joined by “and” are separate entries in the source; they are usually repeats but may differ in a detail not shown here. Equal entries are not always repeated. Where two headings read alike, the source gives them in different places.
# Assays:
# [1] = target: T1, FLhPIF1 (full length human PIF1) (Homo sapiens, UniProt Q9H611); experiment: radiometric strand displacement helicase assay, no pre-incubation; assay type: biochemical; settings: for inhibition at 1000 µM: 1 mM single point, gel-based DNA unwinding assay, four repeats (S4 n=3); for IC50: n = 3
# T1 construct: Full length human PIF1 (FLhPIF1) was expressed and purified as a His-SUMO fusion; His-SUMO (cleaved yes); made in house; 'following similar protocols' to hPIF1HD (ArcticExpress BL21(DE3) E. coli)
# T1 sequence (Q9H611 1-641): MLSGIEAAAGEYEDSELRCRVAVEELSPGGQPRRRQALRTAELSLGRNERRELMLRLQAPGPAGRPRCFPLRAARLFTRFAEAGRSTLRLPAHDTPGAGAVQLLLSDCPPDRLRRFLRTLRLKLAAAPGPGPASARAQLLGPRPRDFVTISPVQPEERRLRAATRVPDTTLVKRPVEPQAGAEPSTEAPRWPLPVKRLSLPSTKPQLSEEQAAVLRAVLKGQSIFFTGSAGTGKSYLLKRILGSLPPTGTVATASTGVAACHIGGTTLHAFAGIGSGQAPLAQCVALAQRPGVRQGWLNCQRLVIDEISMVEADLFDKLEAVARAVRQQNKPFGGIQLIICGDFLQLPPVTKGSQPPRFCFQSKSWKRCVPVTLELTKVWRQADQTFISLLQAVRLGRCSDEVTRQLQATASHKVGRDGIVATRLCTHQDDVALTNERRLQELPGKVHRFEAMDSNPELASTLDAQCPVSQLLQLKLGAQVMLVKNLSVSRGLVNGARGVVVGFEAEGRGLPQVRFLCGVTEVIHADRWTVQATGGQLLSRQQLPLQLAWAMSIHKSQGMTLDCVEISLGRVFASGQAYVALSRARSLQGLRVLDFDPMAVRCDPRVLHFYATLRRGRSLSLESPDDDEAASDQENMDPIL
# Method: Helicase activity was assayed using a radiometric strand displacement assay employing a partially single- and double-stranded substrate generated by annealing two oligonucleotides: 5′-(T)55-[…] and 5′-[…], as described previously ([19],[28]). […] SMIs (100 mM stocks in DMSO) were assayed at up to 2 mM without pre-incubation with FLhPIF1, unless otherwise stated. […] Dried gels were exposed to phosphorimaging plates (Fujifilm) for imaging and quantification (Fuji FLA3000, image gauge V3.3 software). IC50 values were analysed by non-linear regression (variable slope) using GraphPad Prism.
# FLhPIF1 = target: T2, FLhPIF1 (Homo sapiens, UniProt Q9H611); experiment: helicase assay after pre-incubation of SMI with FLhPIF1; assay type: biochemical
# T2 construct: Full length human PIF1 (FLhPIF1) was expressed and purified as a His-SUMO fusion; His-SUMO (cleaved yes); made in house; 'following similar protocols' to hPIF1HD (ArcticExpress BL21(DE3) E. coli)
# T2 sequence (Q9H611 1-641): T1 sequence (Q9H611 1-641)
# Method: Helicase activity was assayed using a radiometric strand displacement assay employing a partially single- and double-stranded substrate generated by annealing two oligonucleotides: 5′-(T)55-[…] and 5′-[…], as described previously ([19],[28]). The reaction buffer was 20 mM HEPES–NaOH pH 7.5, 20 mM NaCl, 5.5 mM MgCl2, 5 mM ATP, 1 mM DTT and 0.1 mg/ml BSA. SMIs (100 mM stocks in DMSO) were assayed at up to 2 mM without pre-incubation with FLhPIF1, unless otherwise stated. Reactions (0.1 nM substrate) were incubated at 37°C for 20 min, followed by addition of 0.2 volumes of 120 mM EDTA, 0.6% (w/v) SDS, 60% (v/v) glycerol and 0.1% (w/v) bromophenol blue before resolution of products by polyacrylamide gel electrophoresis (8%, 19:1 acrylamide:bis-acrylamide), 1× TBE (90 mM Tris–borate/2 mM EDTA, pH 8.3 with 0.05% (w/v) SDS buffer). Dried gels were exposed to phosphorimaging plates (Fujifilm) for imaging and quantification (Fuji FLA3000, image gauge V3.3 software). IC50 values were analysed by non-linear regression (variable slope) using GraphPad Prism.
# First, we screened inhibitory activity of the SMIs listed in Table 1, following incubation of 100 nM FLhPIF1 with 100 μM SMI for 1 h at 22°C in the absence of substrates (ATP and DNA), before a 1:10 dilution into helicase reactions. […] Next, compounds 2, 5, 6 and 11, along with 4 and 1D were selected for analysis in a pre-incubation time-course (100 nM FLhPIF1, 100 μM SMI), up to 3 h before assaying helicase activity.
# In parallel, IC50 values for inhibition of human UPF1 (hUPF1) helicase activity by the SMIs were also determined under the same conditions. UPF1-like SF1B helicases are the most closely related family of helicases to PIF1, with significant structural and mechanistic similarity ([52]).
# Figure 6. SMI IC50 for dsDNA unwinding determined following pre-incubation. SMIs (0.0078–2 mM SMI) were incubated for 2 h at 22°C (100 nM FLhPIF1 or hUPF1) before dilution (1:10) in the standard helicase assay (0.1 nM DNA substrate). For 1D and 6, structures, electrophoresis of FLhPIF1 reaction product and graphs for IC50 value determination are shown. The graphed data include the activity of SMIs towards hUPF1 and IC50 values obtained are given. See Supplementary Figure S14 for the complete data set. TEXT PRINTED IN THE PICTURE: 1D: IC50 (μM): PIF1: 978 ± 221; IC50 (μM): UPF1: N.D. | 6: IC50 (μM): PIF1: 79.4 ± 16; IC50 (μM): UPF1: 1750 ± 426
# [2] = 0.0078–2 mM compound, 10 nM FLhPIF1, 0.1 nM DNA substrate, no pre-incubation, read-out: IC50 for inhibition of FLhPIF1 helicase activity
SMILES,inhibition at 1000 µM [1] [%],other results
CC(=O)Nc1ccc(-c2csc(N)n2)cc1 [Compound 1E],,"helicase inhibitory activity compared to commercial batches 1A–1C ([1]; 0.0078-2 mM, no pre-incubation): significantly lower inhibitory activities"
CC(=O)Nc1ccc(-c2csc(NC(C)=O)n2)cc1 [Compound 7],57 ± 14.7,"fold increase in inhibition at 1 mM relative to compound 1 ([1]; 1 mM single point helicase screen): 4 fold; IC50 [1, 2]: 569 ± 139 µM"
CNCCNc1cc(-c2csc(N)n2)ccc1[N+](=O)[O-] [Compound 8],77.8 ± 7.9,"IC50 [1, 2]: 176 ± 6 µM"
CC(=O)Nc1ccc(-c2csc(N)n2)cc1N1CCNCC1 [Compound 9],69.1 ± 5.5,"IC50 [1, 2]: 307 ± 16 µM"
CC(=O)Nc1ccc(-c2csc(C)n2)cc1 [S2],-3 ± 2.8,inhibition of FLhPIF1 helicase activity in 1 mM single-point screen [1]: only minimal activity
COc1nc(-c2ccc(NC(C)=O)cc2)cs1 [S4],9.6 ± 2.8,inhibition of FLhPIF1 helicase activity in 1 mM single-point screen [1]: only minimal activity
Cc1cccc(-c2csc(N)n2)c1 [S7],-8.1 ± 1.9,
Cc1ccc(-c2csc(N)n2)cc1 [S8],43.9 ± 5.7,inhibition of FLhPIF1 helicase activity in 1 mM single-point screen [1]: incapable of inhibiting FLhPIF1 helicase activity effectively
N#Cc1cccc(-c2csc(N)n2)c1 [S9],-12.6 ± 4.6,
COC(=O)c1cccc(-c2csc(N)n2)c1 [S12],-11 ± 1,
CNC(=O)c1ccc(-c2csc(N)n2)cc1 [S15],37.9 ± 4.3,
CCOc1ccc(-c2csc(N)n2)cc1 [S16],25.9 ± 3.2,
CS(=O)(=O)c1ccc(-c2csc(N)n2)cc1 [S19],46.6 ± 15.5,
Nc1nc(-c2ccc(S(N)(=O)=O)cc2)cs1 [S21],-17.3 ± 4.2,
CC(=O)Nc1ccc(-c2csc(N)n2)cc1C(C)=O [S24],10.4 ± 3.3,
CC(=O)Nc1ccc(-c2csc(N)n2)cc1C(C)O (centres unmarked) [S25],42.5 ± 13.5,
CCN(CC)c1cc(-c2csc(N)n2)ccc1NC(C)=O [S47],24.6 ± 8.9,
CC(=O)Nc1ccc(-c2csc(N)n2)cc1N1CCOCC1 [S48],11.5 ± 3.7,
CC(=O)Nc1ccc(-c2csc(N)n2)cc1N1CCN(C)CC1 [S49],24.3 ± 5.9,
CC(=O)Nc1ccc(-c2csc(N)n2)cc1OC1CCCC1 [S51],50 ± 4.2,
CC(=O)Nc1ccc(-c2csc(N)n2)cc1-c1cccnc1 [S55],-17.3 ± 5,inhibition of FLhPIF1 helicase activity in 1 mM single-point screen [1]: did not display any inhibitory activity at all

# Second part, led by results:
inhibition at 1000 µM [1] [%],SMILES,other results
14.2 ± 7,CC(=O)Nc1ccc(-c2csc(N)n2)cc1 [Compound 1F],"IC50 [1, 2]: ~1160 µM and 1160 µM; IC50 ([1]; no pre-incubation, value with large error, read-out: IC50 against FLhPIF1 helicase): ~1200 µM"
85.6 ± 5.1,Nc1nc(-c2ccc([N+](=O)[O-])cc2)cs1 [Compound 3],"IC50 [1, 2]: 184 ± 13 µM"
72.4 ± 4.5,COC(=O)c1ccc(-c2csc(N)n2)cc1 [Compound 4],"IC50 [1, 2]: 78 ± 4 µM; IC50 (FLhPIF1; 2 h pre-incubation at 22°C with 100 nM FLhPIF1, then 1:10 dilution into helicase assay, read-out: IC50 for dsDNA unwinding by FLhPIF1 following pre-incubation): 300 ± 66 µM; increase in inhibition of FLhPIF1 DNA unwinding after pre-incubation (FLhPIF1; 3 h pre-incubation, 100 nM FLhPIF1, 100 μM SMI): 5–10%"
-6.4 ± 2,CNc1nc(-c2ccc(NC(C)=O)cc2)cs1 [S3],
59.5 ± 1.7,Nc1nc(-c2cccc(OC(F)(F)F)c2)cs1 [S10],
58.3 ± 9.1,Nc1nc(-c2ccc(OC(F)(F)F)cc2)cs1 [S11],
0.2 ± 1.4,CCCNC(=O)c1cccc(-c2csc(N)n2)c1 [S13],
-4.6 ± 2.8,CCN(CC)C(=O)c1ccc(-c2csc(N)n2)cc1 [S14],
61.7 ± 8.2,Nc1nc(-c2ccc(Oc3ccccc3)cc2)cs1 [S17],
-6.7 ± 7.3,Nc1nc(-c2ccc(-c3ccccc3)cc2)cs1 [S18],inhibition of FLhPIF1 helicase activity in 1 mM single-point screen [1]: incapable of inhibiting FLhPIF1 helicase activity effectively
35.9 ± 9.9,COC(=O)Cc1ccc(-c2csc(N)n2)cc1 [S20],
22.1 ± 5,COc1cc(-c2csc(N)n2)ccc1NC(C)=O [S50],
-16.9 ± 4.5,CC(=O)Nc1ccc(-c2csc(N)n2)cc1-c1cnn(C)c1 [S56],inhibition of FLhPIF1 helicase activity in 1 mM single-point screen [1]: did not display any inhibitory activity at all
